Measured values: patent US8865623B2, “Herbicidally active cyclic diones and derivatives thereof, processes for their preparation, compositions, and method of controlling weeds” (Syngenta Limited, priority 2009, dated 2014)

Tests used:
Assay type in all cases: in vivo
[1] = test system: Alopecurus myosuroides (ALOMY); assay: Pre-emergence herbicidal activity, glasshouse pot test; conditions: Alopecurus myosuroides, 312 h, Rate 250 g/ha, evaluated after 13 days, read-out: Pre-emergence activity ALOMY (100=total damage to plant; 0=no damage to plant)
Outline: (§1)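 Seeds sown in standard soil in pots were sprayed 1 day after sowing (pre-emergence) or after 8 days' cultivation (post-emergence) with aqueous spray from acetone/water (50:50) formulation containing 0.5% Tween 20. Plants grew at 24/16° C day/night, 14 h light, 65% humidity, watered twice daily. Damage scored after 13 days, 0–100.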

Avena fatua (AVEFA) [2] = assay: as above; conditions: Avena fatua, 312 h, Rate 250 g/ha, evaluated after 13 days, read-out: Pre-emergence activity AVEFA (100=total damage to plant; 0=no damage to plant)
Outline: as §1

[3] = test system: Echinochloa crus-galli (ECHCG); assay: as above; conditions: Echinochloa crus-galli, 312 h, Rate 250 g/ha, evaluated after 13 days, read-out: Pre-emergence activity ECHCG (100=total damage to plant; 0=no damage to plant)
Outline: as §1

Lolium perenne (LOLPE) [4] = assay: as above; conditions: Lolium perenne, 312 h, Rate 250 g/ha, evaluated after 13 days, read-out: Pre-emergence activity LOLPE (100=total damage to plant; 0=no damage to plant)
Outline: as §1

[5] = test system: Alopecurus myosuroides (ALOMY); assay: Post-emergence herbicidal activity, glasshouse pot test; conditions: Alopecurus myosuroides, 312 h, rate 250 g/ha, evaluated after 13 days, read-out: Post-emergence activity ALOMY (100=total damage to plant; 0=no damage to plant)
Outline: as §1

Avena fatua (AVEFA) [6] = assay: as above; conditions: Avena fatua, 312 h, rate 250 g/ha, evaluated after 13 days, read-out: Post-emergence activity AVEFA (100=total damage to plant; 0=no damage to plant)
Outline: as §1

[7] = test system: Echinochloa crus-galli (ECHCG); assay: as above; conditions: Echinochloa crus-galli, 312 h, rate 250 g/ha, evaluated after 13 days, read-out: Post-emergence activity ECHCG (100=total damage to plant; 0=no damage to plant)
Outline: as §1

Lolium perenne (LOLPE) [8] = assay: as above; conditions: Lolium perenne, 312 h, rate 250 g/ha, evaluated after 13 days, read-out: Post-emergence activity LOLPE (100=total damage to plant; 0=no damage to plant)
Outline: as §1

| Compound | pest or weed control at 250 g/ha ([1]; pre-emergence) [%] | pest or weed control at 250 g/ha (Avena fatua (AVEFA) [2]; pre-emergence) [%] | pest or weed control at 250 g/ha ([3]; pre-emergence) [%] | pest or weed control at 250 g/ha (Lolium perenne (LOLPE) [4]; pre-emergence) [%] | pest or weed control at 250 g/ha [5] [%] | pest or weed control at 250 g/ha (Avena fatua (AVEFA) [6]) [%] | pest or weed control at 250 g/ha [7] [%] | pest or weed control at 250 g/ha (Lolium perenne (LOLPE) [8]) [%] | pest or weed control at 250 g/ha ([1]; pre-emergence spray) [%] | pest or weed control at 250 g/ha (Avena fatua (AVEFA) [2]; pre-emergence spray) [%] | pest or weed control at 250 g/ha ([3]; pre-emergence spray) [%] | pest or weed control at 250 g/ha (Lolium perenne (LOLPE) [4]; pre-emergence spray) [%] | pest or weed control at 250 g/ha ([5]; glasshouse) [%] | pest or weed control at 250 g/ha (Avena fatua (AVEFA) [6]; glasshouse) [%] | pest or weed control at 250 g/ha ([7]; glasshouse) [%] | pest or weed control at 250 g/ha (Lolium perenne (LOLPE) [8]; glasshouse) [%] |
| --- | --- | --- | --- | --- | --- | --- | --- | --- | --- | --- | --- | --- | --- | --- | --- | --- |
| CC1(C)OC(C)(C)C(O)=C(c2cc(Oc3ccc(Cl)cc3)ccc2C2CC2)C1=O [Example A-349] | 40 | 10 | 100 | 90 | 60 | 0 | 100 | 80 |  |  |  |  |  |  |  |  |
| CCc1ccc(Oc2cc(F)cc(F)c2C#N)cc1C1=C(O)C(C)(C)OC(C)(C)C1=O [Example A-206] |  |  |  |  |  |  |  |  | 0 | 0 | 30 | 10 | 20 | 30 | 70 | 50 |
| CCc1ccc(Oc2cc(OC)c(Cl)nn2)cc1C1=C(O)C(C)(C)OC(C)(C)C1=O [Example A-169] |  |  |  |  |  |  |  |  | 20 | 0 | 30 | 10 | 20 | 30 | 30 | 20 |
| CCc1ccc(Oc2ccc(F)c(C(F)(F)F)c2)cc1C1=C(O)C(C)(C)OC(C)(C)C1=O [Example A-178] |  |  |  |  |  |  |  |  | 10 | 0 | 10 | 0 | 40 | 40 | 80 | 30 |
| CCc1ccc(Oc2cccc(C(F)(F)F)c2)cc1C1=C(O)C(C)(C)OC(C)(C)C1=O [Example A-185] |  |  |  |  |  |  |  |  | 0 | 0 | 30 | 0 | 20 | 20 | 70 | 30 |
| CCc1ccc(Oc2ccc3ccccc3n2)cc1C1=C(O)[C@@H]2CC[C@](C)(C1=O)C2(C)C [Example A-321] |  |  |  |  |  |  |  |  | 70 | 50 | 100 | 90 | 90 | 90 | 100 | 90 |
| CCc1ccc(Oc2ccc(Cl)cn2)cc1C1=C(O)C(C)(C)OC(C)(C)C1=O [Example A-147] |  |  |  |  |  |  |  |  | 50 | 20 | 100 | 80 | 80 | 70 | 100 | 90 |
| CCc1ccc(Oc2ncc(Cl)cc2F)cc1C1=C(O)CC(C)(C)CC1=O [Example A-85] |  |  |  |  |  |  |  |  | 100 | 100 | 100 | 100 | 100 | 90 | 100 | 90 |
| CCc1ccc(Oc2nc3ccccc3s2)cc1C1=C(O)C(C)(C)OC(C)(C)C1=O [Example A-105] |  |  |  |  |  |  |  |  | 70 | 10 | 100 | 100 | 90 | 10 | 90 | 90 |
| CCc1ccc(Oc2ccc(Cl)cc2)cc1C1=C(O)CCCC1=O [Example A-27] |  |  |  |  |  |  |  |  | 40 | 60 | 100 | 60 | 30 | 40 | 90 | 30 |
| CCc1ccc(Oc2ncc(C(F)(F)F)cc2C(F)(F)F)cc1C1=C(O)[C@H]2CC[C@H](C2)C1=O [Example A-341] |  |  |  |  |  |  |  |  | 100 | 90 | 100 | 100 | 90 | 100 | 100 | 100 |
| CCc1ccc(Oc2ccc3nc(Cl)cn3n2)cc1C1=C(O)C(C)(C)OC(C)(C)C1=O [Example A-131] |  |  |  |  |  |  |  |  | 30 | 40 | 90 | 60 | 70 | 80 | 90 | 70 |
| CCc1ccc(Oc2ccc(C(F)(F)F)cc2)cc1C1=C(O)C(C)(C)OC(C)(C)C1=O [Example A-97] |  |  |  |  |  |  |  |  | 80 | 90 | 100 | 100 | 100 | 90 | 100 | 90 |
| CCc1ccc(Oc2ccc([N+](=O)[O-])c(Cl)c2)cc1C1=C(O)[C@H]2CC[C@H](C2)C1=O [Example A-333] |  |  |  |  |  |  |  |  | 50 | 40 | 100 | 90 | 60 | 70 | 100 | 60 |
| CCc1ccc(Oc2ccc(Br)c(Cl)c2)cc1C1=C(O)CC(C)(C)CC1=O [Example A-258] |  |  |  |  |  |  |  |  | 30 | 10 | 70 | 30 | 70 | 70 | 100 | 80 |
| CCc1ccc(Oc2nc3ccc(Cl)cc3s2)cc1C1=C(O)[C@H]2CC[C@H](C2)C1=O [Example A-338] |  |  |  |  |  |  |  |  | 90 | 80 | 100 | 100 | 100 | 100 | 100 | 100 |
| CCc1ccc(Oc2cnc3cc(Cl)ccc3n2)cc1C1=C(O)[C@H]2CC[C@H](C2)C1=O [Example A-255] |  |  |  |  |  |  |  |  | 100 | 100 | 100 | 100 | 100 | 100 | 100 | 100 |
| CCc1ccc(Oc2ccc(Br)cc2)cc1C1=C(O)CCC(C)(C)C1=O [Example A-113] |  |  |  |  |  |  |  |  | 30 | 30 | 60 | 100 | 10 | 0 | 90 | 40 |
